Measured values from ChEMBL document CHEMBL3885861, “Open TG-GATES”.

Species: Rattus norvegicus
Test: Open TG-GATES - Regimen: Daily Repeat
Type: toxicity, organism-based, Sprague-Dawley
Design: regimen Daily Repeat, gender Male, age 6 weeks
Conditions: in vivo, po, 0 mg/kg, route gavage, dose level Control; for APTT / Bas / Eos / Fbg / Hb / Ht / Lym / MCH / MCHC / MCV / Mono / Neu / PT / Plat / RBC / Ret / WBC: tissue Blood
[1] = 72 h, tissue Kidney, time 3 day
[2] = 72 h, tissue Plasma, time 3 day

Structure (SMILES): CN(C)CCC(c1ccc(Cl)cc1)c1ccccn1 (stereo unspecified) [CHLORPHENIRAMINE]
- TERMINAL_BW (72 h, time 3 day): 224.6 g
- APTT (72 h, time 3 day): 23.2 s
- Bas (72 h, time 3 day): 0%
- Eos (72 h, time 3 day): 1.2%
- Fbg (72 h, time 3 day): 295.2 mg/dL
- Hb (72 h, time 3 day): 13.4 g/dL
- Ht (72 h, time 3 day): 41.7%
- Lym (72 h, time 3 day): 77.6%
- MCH (72 h, time 3 day): 20.6 pg
- MCHC (72 h, time 3 day): 32.1%
- MCV (72 h, time 3 day): 64.2 fL
- Mono (72 h, time 3 day): 2.8%
- Neu (72 h, time 3 day): 17.4%
- PT (72 h, time 3 day): 14.5 s
- Plat (72 h, time 3 day): 127.5 x10_4/uL
- RBC (72 h, time 3 day): 650.8 x10_4/ul
- Ret (72 h, time 3 day): 6.9%
- WBC (72 h, time 3 day): 76.4 x10_2/uL
- KIDNEY_L [1]: 0.9 g
- KIDNEY_R [1]: 0.9 g
- KIDNEY_TOTAL [1]: 1.9 g
- LIVER (72 h, tissue Liver, time 3 day): 10.1 g
- A/G [2]: 0.9
- ALP [2]: 1824 IU/L
- ALT [2]: 44.2 IU/L
- AST [2]: 69.4 IU/L
- BUN [2]: 14.6 mg/dL
- CRE [2]: 0.2 mg/dL
- Ca [2]: 10.5 mg/dL
- Cl [2]: 107.2 meq/L
- DBIL [2]: 0.014 mg/dL
- GLC [2]: 182.4 mg/dL
- IP [2]: 7.7 mg/dL
- K [2]: 4.5 meq/L
- LDH [2]: 109.4 IU/L
- Na [2]: 142.2 meq/L
- PL [2]: 151.6 mg/dL
- RALB [2]: 2.7 g/dL
- TBIL [2]: 0.034 mg/dL
- TC [2]: 79 mg/dL
- TG [2]: 87.8 mg/dL
- TP [2]: 5.8 g/dL
- gamma-GTP [2]: 1.4 IU/L
- TERMINAL_BW ([…], time 7 day): 265.1 g
- TERMINAL_BW ([…], time 14 day): 314.1 g
- TERMINAL_BW ([…], time 28 day): 409.3 g
- APTT ([…], time 7 day): 18.7 s
- Bas ([…], time 7 day): 0%
- Eos ([…], time 7 day): 0.8%
- Fbg ([…], time 7 day): 323.4 mg/dL
- Hb ([…], time 7 day): 14 g/dL
- Ht ([…], time 7 day): 43.3%
- Lym ([…], time 7 day): 78.6%
- MCH ([…], time 7 day): 20.5 pg
- MCHC ([…], time 7 day): 32.4%
- MCV ([…], time 7 day): 63.3 fL
- Mono ([…], time 7 day): 2.8%
- Neu ([…], time 7 day): 16.6%
- PT ([…], time 7 day): 13.9 s
- Plat ([…], time 7 day): 113.9 x10_4/uL
- RBC ([…], time 7 day): 684.8 x10_4/ul
- Ret ([…], time 7 day): 5.9%
- WBC ([…], time 7 day): 83.1 x10_2/uL
- APTT ([…], time 14 day): 20.3 s
- Bas ([…], time 14 day): 0.4%
- Eos ([…], time 14 day): 1%
- Fbg ([…], time 14 day): 308.2 mg/dL
- Hb ([…], time 14 day): 14.8 g/dL
- Ht ([…], time 14 day): 45.2%
- Lym ([…], time 14 day): 76.8%
- MCH ([…], time 14 day): 20.4 pg
- MCHC ([…], time 14 day): 32.7%
- MCV ([…], time 14 day): 62.2 fL
- Mono ([…], time 14 day): 2.2%
- Neu ([…], time 14 day): 18.8%
- PT ([…], time 14 day): 14.5 s
- Plat ([…], time 14 day): 111 x10_4/uL
- RBC ([…], time 14 day): 727.2 x10_4/ul
- Ret ([…], time 14 day): 3.8%
- WBC ([…], time 14 day): 90.4 x10_2/uL
- APTT ([…], time 28 day): 17.8 s
- Bas ([…], time 28 day): 0.2%
- Eos ([…], time 28 day): 1.2%
- Fbg ([…], time 28 day): 280.8 mg/dL
- Hb ([…], time 28 day): 15.4 g/dL
- Ht ([…], time 28 day): 45.7%
